Here are results for 7 molecules from patent publication US9340590B2 (priority 2011, dated 2016).

Structures are written as SMILES. Read-outs that look alike come from different tables or passages of the source. Positions of bridges follow the written chain, without caps; N, C: chain ends. Non-standard residues stand in square brackets, D forms with d. Residues, ends and D or L forms follow the SMILES beside them. Groups on a side chain read outwards from the residue. Arg(Me2s) = CN=C(NC)NCCC[C@H](N)C(=O)O; Orn = NCCC[C@H](N)C(=O)O; Pra = C#CC[C@H](N)C(=O)O

Experiment in all cases: cell-based
For assay [1], the target named is hNav1.3 (Homo sapiens, UniProt Q9NY46). As to conditions: IonWorks Quattro, read-out: IWQ Use Nav1.3. In general terms: In patch-clamp work, channel activity is measured electrically.
hNav1.3, sequence (Q9NY46 whole entry, looked up): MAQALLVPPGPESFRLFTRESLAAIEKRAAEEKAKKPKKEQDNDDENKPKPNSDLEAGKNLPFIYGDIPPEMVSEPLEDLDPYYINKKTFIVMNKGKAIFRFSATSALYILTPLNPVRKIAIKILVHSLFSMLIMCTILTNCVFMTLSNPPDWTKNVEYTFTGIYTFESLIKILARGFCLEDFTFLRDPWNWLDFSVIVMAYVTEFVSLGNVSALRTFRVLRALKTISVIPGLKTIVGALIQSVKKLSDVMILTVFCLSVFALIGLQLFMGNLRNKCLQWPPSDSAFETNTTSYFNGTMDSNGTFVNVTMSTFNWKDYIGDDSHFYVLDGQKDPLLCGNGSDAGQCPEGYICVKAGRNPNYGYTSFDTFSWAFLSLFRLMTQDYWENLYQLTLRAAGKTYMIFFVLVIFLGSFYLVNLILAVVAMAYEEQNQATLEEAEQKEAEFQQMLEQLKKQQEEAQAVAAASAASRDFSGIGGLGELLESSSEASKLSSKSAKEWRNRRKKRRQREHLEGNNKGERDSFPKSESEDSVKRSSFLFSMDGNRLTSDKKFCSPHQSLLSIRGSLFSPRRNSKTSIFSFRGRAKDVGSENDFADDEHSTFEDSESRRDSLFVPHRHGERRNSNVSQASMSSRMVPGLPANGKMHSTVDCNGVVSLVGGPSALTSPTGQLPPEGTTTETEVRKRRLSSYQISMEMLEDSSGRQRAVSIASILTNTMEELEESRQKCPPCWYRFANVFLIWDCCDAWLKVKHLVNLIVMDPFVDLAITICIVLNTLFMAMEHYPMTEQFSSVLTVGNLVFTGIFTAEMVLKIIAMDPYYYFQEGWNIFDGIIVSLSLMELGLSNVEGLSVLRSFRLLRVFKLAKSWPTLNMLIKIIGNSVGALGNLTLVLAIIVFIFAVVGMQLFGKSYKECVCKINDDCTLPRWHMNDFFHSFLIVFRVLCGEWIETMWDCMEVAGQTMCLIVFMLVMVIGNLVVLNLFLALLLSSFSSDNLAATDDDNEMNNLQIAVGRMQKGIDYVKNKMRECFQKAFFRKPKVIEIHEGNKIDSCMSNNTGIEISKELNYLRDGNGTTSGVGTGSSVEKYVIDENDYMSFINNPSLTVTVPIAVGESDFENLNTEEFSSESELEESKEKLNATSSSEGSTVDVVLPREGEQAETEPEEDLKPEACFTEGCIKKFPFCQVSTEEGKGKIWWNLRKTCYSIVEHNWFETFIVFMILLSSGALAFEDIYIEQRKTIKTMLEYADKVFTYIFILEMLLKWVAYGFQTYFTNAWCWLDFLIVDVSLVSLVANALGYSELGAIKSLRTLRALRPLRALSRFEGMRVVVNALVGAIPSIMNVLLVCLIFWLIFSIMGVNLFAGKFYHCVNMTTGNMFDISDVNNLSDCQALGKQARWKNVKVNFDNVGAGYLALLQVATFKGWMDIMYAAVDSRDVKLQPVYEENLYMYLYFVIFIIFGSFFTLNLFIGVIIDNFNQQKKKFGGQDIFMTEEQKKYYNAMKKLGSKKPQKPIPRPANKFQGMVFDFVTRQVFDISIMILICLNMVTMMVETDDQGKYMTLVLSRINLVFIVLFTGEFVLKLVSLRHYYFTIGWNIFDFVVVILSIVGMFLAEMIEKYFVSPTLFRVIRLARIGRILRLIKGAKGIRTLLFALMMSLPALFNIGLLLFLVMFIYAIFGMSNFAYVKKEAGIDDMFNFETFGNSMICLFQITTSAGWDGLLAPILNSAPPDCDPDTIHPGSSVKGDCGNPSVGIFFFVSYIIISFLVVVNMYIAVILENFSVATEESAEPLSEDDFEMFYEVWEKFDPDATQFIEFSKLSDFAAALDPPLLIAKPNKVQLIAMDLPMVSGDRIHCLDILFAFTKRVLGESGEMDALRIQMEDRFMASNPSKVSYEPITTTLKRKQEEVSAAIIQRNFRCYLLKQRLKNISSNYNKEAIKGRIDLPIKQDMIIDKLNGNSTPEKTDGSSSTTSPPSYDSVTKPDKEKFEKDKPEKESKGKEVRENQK
In assay [2] the target is T1, hNav1.7 (Homo sapiens, UniProt Q15858). It is filed as cell-based. To be noted: IonWorks Quattro, read-out: IWQ Use Nav1.7.
The target in assay [3] is T2, hNav1.5 (Homo sapiens, UniProt Q14524).
T2 sequence (Q14524 whole entry, looked up): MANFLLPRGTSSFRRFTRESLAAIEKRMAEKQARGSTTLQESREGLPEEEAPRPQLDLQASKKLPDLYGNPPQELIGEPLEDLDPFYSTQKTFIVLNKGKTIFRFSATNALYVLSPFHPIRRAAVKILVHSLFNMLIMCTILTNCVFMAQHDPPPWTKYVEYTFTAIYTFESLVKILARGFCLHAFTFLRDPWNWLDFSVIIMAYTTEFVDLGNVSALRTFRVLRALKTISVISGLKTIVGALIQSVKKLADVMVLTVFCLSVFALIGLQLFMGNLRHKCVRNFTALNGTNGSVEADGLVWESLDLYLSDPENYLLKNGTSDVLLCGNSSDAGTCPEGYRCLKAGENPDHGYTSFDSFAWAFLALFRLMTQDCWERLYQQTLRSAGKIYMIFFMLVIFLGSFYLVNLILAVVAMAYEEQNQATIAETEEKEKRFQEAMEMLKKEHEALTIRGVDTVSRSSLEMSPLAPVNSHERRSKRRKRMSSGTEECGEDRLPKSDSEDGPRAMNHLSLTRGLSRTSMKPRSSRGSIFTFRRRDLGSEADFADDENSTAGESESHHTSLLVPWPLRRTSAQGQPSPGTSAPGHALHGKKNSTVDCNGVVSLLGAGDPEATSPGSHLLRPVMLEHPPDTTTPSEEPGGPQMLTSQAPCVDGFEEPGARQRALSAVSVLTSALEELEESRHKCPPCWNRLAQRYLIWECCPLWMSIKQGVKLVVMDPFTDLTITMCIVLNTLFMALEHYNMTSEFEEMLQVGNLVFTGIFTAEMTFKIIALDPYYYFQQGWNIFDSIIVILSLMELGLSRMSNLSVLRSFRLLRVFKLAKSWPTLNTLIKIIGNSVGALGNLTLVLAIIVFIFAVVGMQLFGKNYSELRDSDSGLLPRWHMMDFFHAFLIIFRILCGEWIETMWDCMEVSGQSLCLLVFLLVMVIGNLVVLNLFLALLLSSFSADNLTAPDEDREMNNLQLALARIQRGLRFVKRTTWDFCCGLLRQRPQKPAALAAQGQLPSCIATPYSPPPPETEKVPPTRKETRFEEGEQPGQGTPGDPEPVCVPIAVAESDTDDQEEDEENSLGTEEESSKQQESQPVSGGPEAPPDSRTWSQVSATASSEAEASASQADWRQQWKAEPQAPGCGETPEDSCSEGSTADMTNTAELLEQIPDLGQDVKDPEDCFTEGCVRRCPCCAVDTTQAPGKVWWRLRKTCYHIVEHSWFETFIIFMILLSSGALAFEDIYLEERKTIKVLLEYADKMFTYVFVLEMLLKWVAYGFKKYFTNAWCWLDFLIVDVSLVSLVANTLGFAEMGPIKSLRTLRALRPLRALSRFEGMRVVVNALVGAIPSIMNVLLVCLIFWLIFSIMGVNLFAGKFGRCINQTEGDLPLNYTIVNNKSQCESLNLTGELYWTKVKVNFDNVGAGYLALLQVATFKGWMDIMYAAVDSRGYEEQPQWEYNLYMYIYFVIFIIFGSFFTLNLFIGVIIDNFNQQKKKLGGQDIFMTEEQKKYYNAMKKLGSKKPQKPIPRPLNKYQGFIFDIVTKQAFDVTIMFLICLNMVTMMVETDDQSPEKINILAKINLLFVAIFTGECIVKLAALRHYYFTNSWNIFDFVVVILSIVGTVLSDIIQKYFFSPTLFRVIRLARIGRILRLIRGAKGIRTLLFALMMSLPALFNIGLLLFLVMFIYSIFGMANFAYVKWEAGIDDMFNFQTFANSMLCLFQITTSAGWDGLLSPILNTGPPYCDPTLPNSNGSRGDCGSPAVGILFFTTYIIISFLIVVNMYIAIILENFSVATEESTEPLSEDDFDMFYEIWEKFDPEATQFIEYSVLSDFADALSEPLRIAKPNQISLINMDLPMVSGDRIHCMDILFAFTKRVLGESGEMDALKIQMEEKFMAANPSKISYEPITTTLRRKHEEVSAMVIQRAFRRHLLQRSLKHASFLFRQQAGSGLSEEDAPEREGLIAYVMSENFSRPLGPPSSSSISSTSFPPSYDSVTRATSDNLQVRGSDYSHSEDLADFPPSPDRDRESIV
Assay [4] has as its target T2, hNav1.5. As to conditions: IonWorks Quattro, read-out: IWQ Use Nav1.5.
Assay [5] has as its target T1, hNav1.7. To be noted: Nav1.7 Use IC50.
The mark [6] stands for this setting: clamped to −110 mV, depolarized to −10 mV, 5 min after compound, n=2.

`CC[C@H](C)[C@@H]1NC(=O)[C@@H]2CSSC[C@@H]3NC(=O)[C@H](C(C)C)NC(=O)[C@H](CC(C)C)NC(=O)[C@H](CC(N)=O)NC(=O)[C@@H]4CCCN4C(=O)[C@H](CCCNC(=N)N)NC(=O)[C@H](CSSC[C@H](NC(=O)[C@@H](N)CC(=O)O)C(=O)N[C@@H](CC(C)C)C(=O)NCC(=O)N[C@@H](Cc4ccccc4)C(=O)N4CCC[C@H]4C(=O)N[C@@H](CCCNC(=N)N)C(=O)N[C@@H](CCCCN)C(=O)N2)NC(=O)[C@H](CSSC[C@@H](C(=O)N[C@@H](CCCCN)C(=O)N[C@@H](Cc2ccc(O)cc2)C(=O)N[C@H](C(=O)N[C@@H](Cc2ccccc2)C(N)=O)C(C)C)NC(=O)[C@H](Cc2c[nH]c4ccccc24)NC(=O)[C@H](CCCCN)NC(=O)[C@H](Cc2c[nH]cn2)NC(=O)[C@H]([C@@H](C)O)NC(=O)[C@H](CCCNC(=N)N)NC(=O)[C@H](CO)NC3=O)NC(=O)[C@H](CCCCN)NC(=O)[C@H](CC(=O)O)NC(=O)[C@H](CC(N)=O)NC(=O)[C@H](CC(=O)O)NC(=O)[C@@H]2CCCN2C1=O` [SEQ ID NO: 283] (H-DCLGFPRKCIPDNDKCCRPNLVCSRTHKWCKYVF-NH2; disulfide 2-17, 9-23, 16-30): the IC50 is 0.76 µM in assay [1] (setting [6]); 0.79 µM in assay [2] (setting [6]); 10 µM in assay [3]; 10 µM in assay [4] (setting [6]); 0.042 µM in assay [5].

On to `CC[C@H](C)[C@@H]1NC(=O)[C@@H]2CSSC[C@@H]3NC(=O)[C@H](C(C)C)NC(=O)[C@H](CC(C)C)NC(=O)[C@H](CC(N)=O)NC(=O)[C@@H]4CCCN4C(=O)[C@H](CCCNC(=N)N)NC(=O)[C@H](CSSC[C@H](NC(=O)[C@@H](N)CC(=O)O)C(=O)N[C@@H](CCC(=O)O)C(=O)NCC(=O)N[C@@H](Cc4ccccc4)C(=O)N[C@@H](CCSC)C(=O)N[C@@H](CCCNC(=N)N)C(=O)N[C@@H](CCCCN)C(=O)N2)NC(=O)[C@H](CSSC[C@@H](C(=O)N[C@@H](CCCCN)C(=O)N[C@@H](Cc2ccc(O)cc2)C(=O)N[C@H](C(=O)N[C@@H](Cc2ccccc2)C(N)=O)C(C)C)NC(=O)[C@H](Cc2c[nH]c4ccccc24)NC(=O)[C@H](CCCCN)NC(=O)[C@H](Cc2cnc[nH]2)NC(=O)[C@H]([C@@H](C)O)NC(=O)[C@H](CCCNC(=N)N)NC(=O)[C@H](CO)NC3=O)NC(=O)[C@H](CCCCN)NC(=O)[C@H](CC(=O)O)NC(=O)[C@H](CC(N)=O)NC(=O)[C@H](CC(=O)O)NC(=O)[C@@H]2CCCN2C1=O` [SEQ ID NO: 19] (H-DCEGFMRKCIPDNDKCCRPNLVCSRTHKWCKYVF-NH2; disulfide 2-17, 9-23, 16-30), for which the IC50 was 0.83 µM in assay [1] (setting [6]), more than 10 µM in assay [3], 10.5 µM in assay [4] (setting [6]) and 0.041 µM in assay [5].

Regarding `CC[C@H](C)[C@@H]1NC(=O)[C@@H]2CSSC[C@@H]3NC(=O)[C@H](C(C)C)NC(=O)[C@H](CC(C)C)NC(=O)[C@H](CC(N)=O)NC(=O)[C@@H]4CCCN4C(=O)[C@H](CCCNC(=N)N)NC(=O)[C@H](CSSC[C@H](NC(=O)[C@@H](N)CC(=O)O)C(=O)N[C@@H](CC(C)C)C(=O)NCC(=O)N[C@@H](Cc4ccccc4)C(=O)N[C@@H](CCSC)C(=O)N[C@@H](CCCNC(=N)N)C(=O)N[C@@H](CCCCN(C)C)C(=O)N2)NC(=O)[C@H](CSSC[C@@H](C(=O)N[C@@H](CCCCN)C(=O)N[C@@H](Cc2ccc(O)cc2)C(=O)N[C@H](C(=O)N[C@@H](Cc2ccccc2)C(N)=O)C(C)C)NC(=O)[C@H](Cc2c[nH]c4ccccc24)NC(=O)[C@H](CCCCN)NC(=O)[C@H](Cc2c[nH]cn2)NC(=O)[C@H]([C@@H](C)O)NC(=O)[C@H](CCCNC(=N)N)NC(=O)[C@H](CO)NC3=O)NC(=O)[C@H](CCCCN)NC(=O)[C@H](CC(=O)O)NC(=O)[C@H](CC(N)=O)NC(=O)[C@H](CC(=O)O)NC(=O)[C@@H]2CCCN2C1=O` [[K(Me2)8]GpTx-1(1-34)], the IC50 in assay [1] (use-dependent block, hNav1.3) is 0.18 µM; in assay [2] (use-dependent block, hNav1.7), 0.19 µM; in assay [3] it was more than 10 µM; in assay [4] (use-dependent block, hNav1.5) it was 9.46 µM; in assay [5] it was 0.004 µM.

For the molecule `CC[C@H](C)[C@@H]1NC(=O)[C@@H]2CSSC[C@@H]3NC(=O)[C@H](C(C)C)NC(=O)[C@H](CC(C)C)NC(=O)[C@H](CC(N)=O)NC(=O)[C@@H]4CCCN4C(=O)[C@H](CCCNC(=N)N)NC(=O)[C@H](CSSC[C@H](NC(=O)[C@@H](N)CC(=O)O)C(=O)N[C@@H](CC(C)C)C(=O)NCC(=O)N[C@@H](Cc4ccccc4)C(=O)N[C@@H](CCSC)C(=O)N[C@@H](CCCNC(=N)N)C(=O)N[C@@H]([C@@H](C)O)C(=O)N2)NC(=O)[C@H](CSSC[C@@H](C(=O)N[C@@H](CCCCN)C(=O)N[C@@H](Cc2ccc(O)cc2)C(=O)N[C@H](C(=O)N[C@@H](Cc2ccccc2)C(N)=O)C(C)C)NC(=O)[C@H](Cc2c[nH]c4ccccc24)NC(=O)[C@H](CCCCN)NC(=O)[C@H](Cc2c[nH]cn2)NC(=O)[C@H]([C@@H](C)O)NC(=O)[C@H](CCCNC(=N)N)NC(=O)[C@H](CO)NC3=O)NC(=O)[C@H](CCCCN)NC(=O)[C@H](CC(=O)O)NC(=O)[C@H](CC(N)=O)NC(=O)[C@H](CC(=O)O)NC(=O)[C@@H]2CCCN2C1=O` [[Thr8]GpTx-1(1-34)] (H-DCLGFMRTCIPDNDKCCRPNLVCSRTHKWCKYVF-NH2; disulfide 2-17, 9-23, 16-30), the IC50 is 0.15 µM in assay [1] (use-dependent block, hNav1.3); 0.35 µM in assay [2] (use-dependent block, hNav1.7); more than 10 µM in assay [3]; 9.86 µM in assay [4] (use-dependent block, hNav1.5); 0.009 µM in assay [5].

For `CC[C@H](C)[C@@H]1NC(=O)[C@@H]2CSSC[C@@H]3NC(=O)[C@H](C(C)C)NC(=O)[C@H](CC(C)C)NC(=O)[C@H](CC(N)=O)NC(=O)[C@@H]4CCCN4C(=O)[C@H](CCCNC(=N)N)NC(=O)[C@H](CSSC[C@H](NC(=O)[C@@H](N)CC(=O)O)C(=O)N[C@@H](CC(C)C)C(=O)NCC(=O)N[C@@H](C)C(=O)N[C@@H](CCSC)C(=O)N[C@@H](CCCNC(=N)N)C(=O)N[C@@H](CCCCN)C(=O)N2)NC(=O)[C@H](CSSC[C@@H](C(=O)N[C@@H](CCCCN)C(=O)N[C@@H](Cc2ccc(O)cc2)C(=O)N[C@H](C(=O)N[C@@H](Cc2ccccc2)C(N)=O)C(C)C)NC(=O)[C@H](Cc2c[nH]c4ccccc24)NC(=O)[C@H](CCCN)NC(=O)[C@H](Cc2c[nH]cn2)NC(=O)[C@H]([C@@H](C)O)NC(=O)[C@H](CCCNC(=N)N)NC(=O)[C@H](CO)NC3=O)NC(=O)[C@H](CCCCN)NC(=O)[C@H](CC(=O)O)NC(=O)[C@H](CC(N)=O)NC(=O)[C@H](CC(=O)O)NC(=O)[C@@H]2CCCN2C1=O` [[Ala5;Orn28]GpTx-1(1-34)] (H-DCLGAMRKCIPDNDKCCRPNLVCSRTH[Orn]WCKYVF-NH2; disulfide 2-17, 9-23, 16-30), the IC50 in assay [3] is more than 10 µM; in assay [5], 0.059 µM.

Turning to `CC[C@H](C)[C@@H]1NC(=O)[C@@H]2CSSC[C@@H]3NC(=O)[C@H](C(C)C)NC(=O)[C@H](CC(C)C)NC(=O)[C@H](CC(N)=O)NC(=O)[C@@H]4CCCN4C(=O)[C@H](CCCNC(=N)N)NC(=O)[C@H](CSSC[C@H](NC(=O)[C@@H](N)CC(=O)O)C(=O)N[C@@H](CC(C)C)C(=O)NCC(=O)N[C@@H](C)C(=O)N[C@@H](CCSC)C(=O)N[C@@H](CCCNC(=N)N)C(=O)N[C@@H](CCCCN)C(=O)N2)NC(=O)[C@H](CSSC[C@@H](C(=O)N[C@@H](CCCCN)C(=O)N[C@@H](Cc2ccc(O)cc2)C(=O)N[C@H](C(=O)N[C@@H](Cc2ccccc2)C(N)=O)C(C)C)NC(=O)[C@H](Cc2c[nH]c4ccccc24)NC(=O)[C@H](CCCNC(=NC)NC)NC(=O)[C@H](Cc2c[nH]cn2)NC(=O)[C@H]([C@@H](C)O)NC(=O)[C@H](CCCNC(=N)N)NC(=O)[C@H](CO)NC3=O)NC(=O)[C@H](CCCCN)NC(=O)[C@H](CC(=O)O)NC(=O)[C@H](CC(N)=O)NC(=O)[C@H](CC(=O)O)NC(=O)[C@@H]2CCCN2C1=O` [[Ala5;SDMA28]GpTx-1(1-34)] (H-DCLGAMRKCIPDNDKCCRPNLVCSRTH[Arg(Me2s)]WCKYVF-NH2; disulfide 2-17, 9-23, 16-30), the IC50 was more than 10 µM in assay [3] and 0.041 µM in assay [5].

With `C#CC[C@H](NC(C)=O)C(=O)NCCCC[C@@H]1NC(=O)[C@H](CC(=O)O)NC(=O)[C@@H]2CCCN2C(=O)[C@H]([C@@H](C)CC)NC(=O)[C@@H]2CSSC[C@@H]3NC(=O)[C@H](C(C)C)NC(=O)[C@H](CC(C)C)NC(=O)[C@H](CC(N)=O)NC(=O)[C@@H]4CCCN4C(=O)[C@H](CCCNC(=N)N)NC(=O)[C@H](CSSC[C@H](NC(=O)[C@@H](N)CC(=O)O)C(=O)N[C@@H](CC(C)C)C(=O)NCC(=O)N[C@@H](C)C(=O)N[C@@H](Cc4ccccc4)C(=O)N[C@@H](CCCNC(=N)N)C(=O)N[C@@H](CCCCN)C(=O)N2)NC(=O)[C@H](CSSC[C@@H](C(=O)N[C@@H](CCCCN)C(=O)N[C@@H](Cc2ccc(O)cc2)C(=O)N[C@H](C(=O)N[C@@H](Cc2ccccc2)C(N)=O)C(C)C)NC(=O)[C@H](Cc2c[nH]c4ccccc24)NC(=O)[C@H](CCCCN)NC(=O)[C@H](Cc2c[nH]cn2)NC(=O)[C@H]([C@@H](C)O)NC(=O)[C@H](CCCNC(=N)N)NC(=O)[C@H](CO)NC3=O)NC(=O)[C@H](CCCCN)NC(=O)[C@H](CC(=O)O)NC1=O` [[Ala5;Phe6;K(Ac-Pra)13]GpTx-1(1-34)] (H-DCLGAFRKCIPDK([Pra-Ac])DKCCRPNLVCSRTHKWCKYVF-NH2; disulfide 2-17, 9-23, 16-30), the IC50 is more than 10 µM in assay [3] and 0.011 µM in assay [5].
